# Columns and labels:
# [1] = system: Brain; conditions: rat, 5 h, 0.1 µM
# Description: Unbound volume of distribution in Sprague-Dawley rat brain slices at 100 nM after 5 hrs
# [2] = in vivo; conditions: Sprague-Dawley, rat
# [3] = physchem
# Description: Dissociation constant, pKa of the acidic compound by capillary electrophoresis-mass spectrometry analysis
# [4] = in vitro; conditions: Sprague-Dawley, rat, brain homogenate
# [5] = Dissociation constant, pKa of the basic compound by capillary electrophoresis-mass spectrometry analysis; format: physicochemical
# [6] = system: Brain; conditions: rat, in vivo, 5 h, 0.1 µM
# Description: Drug uptake in Sprague-Dawley rat brain slices at 100 nM after 5 hrs in presence of 10 uM of fumitremorgin-C
# [7] = system: Brain; conditions: rat, in vivo, 5 h, 0.1 µM; remark: listed apart in the source
# Description: Drug uptake in Sprague-Dawley rat brain slices at 100 nM after 5 hrs in presence of 20 uM of MK-571
# [8] = system: Brain; conditions: rat, in vivo, 5 h, 0.1 µM; remark: listed apart in the source
# Description: Drug uptake in Sprague-Dawley rat brain slices at 100 nM after 5 hrs in presence of 10 uM of fumitremorgin-C and 20 uM of MK-571
# [9] = system: Brain; conditions: Sprague-Dawley, rat, brain homogenate, 5 µM
# [10] = system: Brain; experiment: Drug uptake in Sprague-Dawley rat brain slices in presence of 50 nM of monensin; format: ADME, tissue-based
# [11] = system: Brain; experiment: Drug uptake in Sprague-Dawley rat brain slices in presence of 1 uM of decynium-22; format: ADME, tissue-based
# [12] = system: Brain; experiment: Drug uptake in Sprague-Dawley rat brain slices in presence of 50 pM to 50 nM of monensin; format: ADME, tissue-based
Compound,Vdu [1] [mL/g],Kp uu ([2]; brain and plasma),pKa [3],fraction unbound at 5 µM [4],Vdu ([1]; in vivo) [mL/g],Kp uu ([2]; brain),further results
Cc1ncc2n1-c1ccc(Cl)cc1C(c1ccccc1F)=NC2 [MIDAZOLAM],29,0.74,5.4,0.026,,,
O=C1c2c(O)ccc(O)c2C(=O)c2c(NCCNCCO)ccc(NCCNCCO)c21 [MITOXANTRONE],1757,8.01,8.4,0.0046,,,pKa [5]: 3.2; Compound recovery [6]: Active; Compound recovery [7]: Active; Compound recovery [8]: Active
CN1CC[C@]23c4c5ccc(O[C@@H]6O[C@H](C(=O)O)[C@@H](O)[C@H](O)[C@H]6O)c4O[C@H]2[C@@H](O)C=C[C@H]3[C@H]1C5 [MORPHINE 3-GLUCURONIDE],0.6,0.58,,0.97,,,
CN1CC[C@]23c4c5ccc(O)c4O[C@H]2[C@@H](O[C@@H]2O[C@H](C(=O)O)[C@@H](O)[C@H](O)[C@H]2O)C=C[C@H]3[C@H]1C5 [MORPHINE GLUCURONIDE],0.98,0.86,9,0.87,,,pKa [5]: 4.3
CO[C@@]1(NC(=O)C(C(=O)O)c2ccc(O)cc2)C(=O)N2C(C(=O)O)=C(CSc3nnnn3C)CO[C@@H]21 (stereo partly drawn) [MOXALACTAM],,,,,0.46,0.46,pKa [5]: 2.9; Fu [9]: 12
CC(C)(C)NCC(O)COc1cccc2c1CC(O)C(O)C2 (stereo not drawn) [NADOLOL],,,9.9,,,,
CN(C)C(=O)Oc1cccc([N+](C)(C)C)c1 [NEOSTIGMINE],3.2,3.07,,0.95,,,Compound recovery [10]: Active; Compound recovery [11]: Not Active
CCn1cc(C(=O)O)c(=O)c2cc(F)c(N3CCNCC3)cc21 [NORFLOXACIN],,,8.7,0.58,2.9,1.66,pKa [5]: 4.4
C=CCOc1ccccc1OCC(O)CNC(C)C (stereo not drawn) [OXPRENOLOL],,,9.7,0.28,11.8,3.25,
CN1CC[C@]23c4c5ccc(O)c4O[C@H]2C(=O)CC[C@@]3(O)[C@H]1C5 [OXYMORPHONE],4,2.97,8.7,0.75,,,
CC(=O)O[C@H]1C(=O)[C@@]2(C)[C@H]([C@H](OC(=O)c3ccccc3)[C@]3(O)C[C@H](OC(=O)[C@H](O)[C@@H](NC(=O)c4ccccc4)c4ccccc4)C(C)=C1C3(C)C)[C@]1(OC(C)=O)CO[C@@H]1C[C@@H]2O [PACLITAXEL],769,9.03,,0.012,,,
CC(C)NCC(O)COc1cccc2[nH]ccc12 (stereo not drawn) [PINDOLOL],,,,0.4,,2.89,
CC(C)NCC(O)COc1cccc2ccccc12 (stereo not drawn) [PROPRANOLOL],112,,,0.029,,,Compound recovery [12]: Not Active
C=C[C@H]1C[N@@]2CC[C@H]1C[C@@H]2[C@@H](O)c1ccnc2ccc(OC)cc12 [QUINIDINE],,,,,,3.45,
C=C[C@H]1C[N@@]2CC[C@H]1C[C@H]2[C@H](O)c1ccnc2ccc(OC)cc12 [QUININE],,,,,,3.51,
CO[C@H]1/C=C/O[C@@]2(C)Oc3c(C)c(O)c4c(O)c(c(/C=N/N5CCN(C)CC5)c(O)c4c3C2=O)NC(=O)/C(C)=C\C=C\[C@H](C)[C@H](O)[C@@H](C)[C@@H](O)[C@@H](C)[C@H](OC(C)=O)[C@@H]1C [RIFAMPIN],,,7.6,,,,pKa [5]: 2.2
O=C(O)c1ccccc1O [SALICYLIC ACID],,,,0.63,1,0.62,
O=C(O)c1cc(/N=N/c2ccc(S(=O)(=O)Nc3ccccn3)cc2)ccc1O [SULFASALAZINE],,,,,,,pKa [5]: 2
Nc1c2c(nc3ccccc13)CCCC2 [TACRINE],,,,0.16,22,,
CC[N+](CC)(CC)CC [TETRYLAMMONIUM],,,,1,9,8.95,Compound recovery [10]: Active; Compound recovery [11]: Not Active
CCCC(C)C1(CC)C(=O)NC(=S)NC1=O (stereo not drawn) [THIOPENTAL],,,,,,,pKa [5]: 7.6
CSc1ccc2c(c1)N(CCC1CCCCN1C)c1ccccc1S2 (stereo not drawn) [THIORIDAZINE],,,8.9,0.00067,3333,2.24,
CC1(C)O[C@@H]2[C@@H](CO[C@@]3(COS(N)(=O)=O)OC(C)(C)O[C@@H]23)O1 [TOPIRAMATE],3.2,1.96,,0.61,,,
COc1cccc(C2(O)CCCCC2CN(C)C)c1 (stereo not drawn) [TRAMADOL],,,9.7,0.53,4.2,2.25,
